The values below come from PMC7671950 (Cellular and molecular neurobiology, 2020).

Experiment [1] addresses T1, mMOR-1 (Mus musculus, UniProt P42866). As to the kind of experiment: [35S]GTPγS functional assay. Format: biochemical. The following applies: for functional character at MOR-1: [35S]GTPγS functional assays; for Emax: read-out: mMOR-1 Emax; for mMOR-1 Emax: percent maximal stimulation relative to DAMGO at 1000 nM. For orientation: GTPγS is a poorly hydrolysed GTP analogue; its binding reports G protein activation.

Experiment [2] has as its target T2, 6TM/E11 (Mus musculus, UniProt P42866).
A further experiment addresses mDOR-1 (Mus musculus, UniProt P32300). Particulars: read-out: Ki mDOR-1; values from literature; ref Majumdar et al. 2012; cited from earlier work.
In experiment [3] the target is T2, 6TM/E11. Particulars: read-out: Ki 6TM/E11; values from literature; ref Majumdar et al. 2012; cited from earlier work.
Experiment [4] addresses T1, mMOR-1. The following applies: read-out: Ki mMOR-1; values from literature; ref Majumdar et al. 2012; cited from earlier work.
The next experiment deals with mKOR-1 (Mus musculus, UniProt P33534). The following applies: read-out: Ki mKOR-1; values from literature; ref Majumdar et al. 2012; cited from earlier work.
Experiment [5] concerns the target triple knockout mouse brain (Mus musculus, UniProt P42866). The following applies: read-out: Ki Triple KO; values from literature; ref Majumdar et al. 2012; cited from earlier work.
[6] abbreviates: read-out: mMOR-1 EC50, [35S]GTPγS binding, mean ± SEM, 3 replications.

Each structure is given as a SMILES string. Like-named read-outs stand apart in the source and are kept apart here.

T2 sequence (P42866 95-386 limits assumed): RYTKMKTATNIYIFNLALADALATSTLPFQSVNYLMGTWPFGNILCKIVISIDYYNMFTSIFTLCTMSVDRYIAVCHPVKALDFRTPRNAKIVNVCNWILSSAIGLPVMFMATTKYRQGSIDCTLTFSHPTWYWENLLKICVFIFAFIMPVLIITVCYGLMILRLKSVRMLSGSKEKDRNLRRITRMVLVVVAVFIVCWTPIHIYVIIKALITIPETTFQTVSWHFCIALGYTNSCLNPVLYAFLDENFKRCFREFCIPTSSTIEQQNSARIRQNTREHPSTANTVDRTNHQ
T1 sequence (P42866 whole entry): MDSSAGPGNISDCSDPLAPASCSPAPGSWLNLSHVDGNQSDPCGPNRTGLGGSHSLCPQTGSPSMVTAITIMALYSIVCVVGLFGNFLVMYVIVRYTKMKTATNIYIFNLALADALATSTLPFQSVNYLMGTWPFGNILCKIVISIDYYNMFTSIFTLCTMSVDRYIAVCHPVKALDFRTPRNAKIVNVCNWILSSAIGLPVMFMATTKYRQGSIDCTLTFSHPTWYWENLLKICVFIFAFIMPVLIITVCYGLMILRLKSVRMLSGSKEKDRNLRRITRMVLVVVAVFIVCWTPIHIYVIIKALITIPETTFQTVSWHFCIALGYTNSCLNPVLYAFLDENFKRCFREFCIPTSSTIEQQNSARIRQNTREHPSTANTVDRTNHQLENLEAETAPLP
mKOR-1, sequence (P33534 whole entry): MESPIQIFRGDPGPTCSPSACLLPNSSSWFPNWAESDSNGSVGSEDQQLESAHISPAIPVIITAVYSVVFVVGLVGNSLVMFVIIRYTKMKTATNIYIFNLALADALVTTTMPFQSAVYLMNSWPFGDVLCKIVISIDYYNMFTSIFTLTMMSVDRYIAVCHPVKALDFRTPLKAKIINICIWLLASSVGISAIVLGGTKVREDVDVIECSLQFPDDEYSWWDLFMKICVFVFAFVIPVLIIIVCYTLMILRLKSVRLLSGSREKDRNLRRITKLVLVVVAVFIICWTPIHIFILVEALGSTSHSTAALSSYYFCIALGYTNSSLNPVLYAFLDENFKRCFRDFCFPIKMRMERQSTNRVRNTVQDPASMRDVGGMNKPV
mDOR-1, sequence (P32300 whole entry): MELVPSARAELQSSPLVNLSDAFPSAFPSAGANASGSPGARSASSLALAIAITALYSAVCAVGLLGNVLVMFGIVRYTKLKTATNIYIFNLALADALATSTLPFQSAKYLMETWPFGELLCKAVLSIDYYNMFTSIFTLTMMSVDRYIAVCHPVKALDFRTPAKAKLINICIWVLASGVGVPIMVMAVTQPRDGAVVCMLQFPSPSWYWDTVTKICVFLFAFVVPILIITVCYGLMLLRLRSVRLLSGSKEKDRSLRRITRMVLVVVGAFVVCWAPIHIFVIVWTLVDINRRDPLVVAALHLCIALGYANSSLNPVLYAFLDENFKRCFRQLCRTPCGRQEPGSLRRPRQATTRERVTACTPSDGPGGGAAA
triple knockout mouse brain, sequence (P42866 96-398): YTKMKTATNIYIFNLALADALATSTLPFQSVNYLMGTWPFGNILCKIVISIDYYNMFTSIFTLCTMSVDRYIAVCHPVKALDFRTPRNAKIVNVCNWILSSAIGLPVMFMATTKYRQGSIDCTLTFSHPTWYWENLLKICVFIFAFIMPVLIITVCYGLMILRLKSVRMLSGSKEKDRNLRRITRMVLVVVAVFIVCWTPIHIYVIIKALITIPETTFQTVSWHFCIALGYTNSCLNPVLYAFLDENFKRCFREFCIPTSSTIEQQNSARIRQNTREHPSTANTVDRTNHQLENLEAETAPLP

As a reminder, the EC50 is the concentration that produces a half-maximal response. The term Emax denotes the size of the effect at its maximum, as opposed to the concentration needed. Regarding `C#CCN1CC[C@]23c4c5ccc(O)c4O[C@H]2[C@H](NC(=O)c2ccc(N=[N+]=[N-])c(I)c2)CC[C@@]3(O)[C@H]1C5` [Alkynyl-IBzA 17, 4-Azido-N-((4R,4aS,7R,7aR,12bS)-4a,9-dihydroxy-3-(prop-2-yn-1-yl)-2,3,4,4a,5,6,7,7a-octahydro-1H-4,12-methanobenzofuro[3,2-e]isoquinolin-7-yl)-3-iodobenzamide], on mMOR-1 [1], a half-maximal effect (EC50) was put at 1100 ± 100 pM, the “functional character at MOR-1” value is “full agonists” and the maximal response (Emax) amounted to 103 ± 3%. In addition, the Ki at 6TM/E11 [2] is 12000 ± 1630 pM.
Consider `C=CCN1CC[C@]23c4c5ccc(O)c4O[C@H]2[C@H](NC(=O)c2cccc(I)c2)CC[C@@]3(O)[C@H]1C5` [IBNalA], for which the Ki was 2550 ± 180 pM on mDOR-1, 250 ± 120 pM on 6TM/E11 [3], 220 ± 120 pM at mMOR-1 [4] and 80 ± 60 pM at mKOR-1. Besides, the “mMOR-1 Emax” value on mMOR-1 [1] (mean ± SEM) came to 75 ± 3.5%. The EC50 at mMOR-1 [1] (setting [6]) stood at 1400 ± 300 pM.
On to `O=C(N[C@@H]1CC[C@@]2(O)[C@H]3Cc4ccc(O)c5c4[C@@]2(CCN3CC2CC2)[C@H]1O5)c1cccc(I)c1` [IBNtxA, 3’-iodobenzoylnaltrexamide], for which the Ki is 240 ± 100 pM at mDOR-1; 160 ± 40 pM at 6TM/E11 [3]; 120 ± 40 pM in experiment [5]; 110 ± 20 pM on mMOR-1 [4]; 30 ± 1 pM on mKOR-1. The “mMOR-1 Emax” value at mMOR-1 [1] (mean ± SEM) is on record as 101 ± 3%. Besides, the 50% effective concentration (EC50) at mMOR-1 [1] (setting [6]) turned out to be 490 ± 120 pM.
For `C=CCN1CC[C@]23c4c5ccc(O)c4O[C@H]2[C@H](NC(=O)c2ccc(N=[N+]=[N-])c(I)c2)CC[C@@]3(O)[C@H]1C5` [IBzA 10, N-((4R,4aS,7R,7aR,12bS)-3-Allyl-4a,9-dihydroxy-2,3,4,4a,5,6,7,7a-octahydro-1H-4,12-methanobenzofuro[3,2-e]isoquinolin-7-yl)-4-azido-3-iodobenzamide], on mMOR-1 [1], the response was half-maximal at 860 ± 240 pM (EC50), the “functional character at MOR-1” value is “full agonists” and the Emax is 122 ± 3%. Moreover, the Ki at 6TM/E11 [2] amounted to 4640 ± 200 pM.
